# Laboratory results published in patent publication US20070037230A1 (priority 2005, published 2007).
# Key:
# Type in all cases: binding
# [1] = system: biotinylated Bacillus anthracis spores
# Bacillus megaterium = system: Bacillus megaterium
# Bacillus subtilis = system: Bacillus subtilis
# Bacillus licheniformis = system: Bacillus licheniformis
# Bacillus cereus = system: Bacillus cereus
# Bacillus thuringiensis = system: Bacillus thuringiensis
# [2] = system: Bacillus anthracis spores
# [3] = system: Bacillus anthracis spores; remark: listed apart in the source
Sequence,binding in the ELISA [1],bound to Bacillus anthracis fold better than to Bacillus megaterium (Bacillus megaterium) [fold],bound to Bacillus anthracis fold better than to Bacillus subtilis (Bacillus subtilis) [fold],bound to Bacillus anthracis fold better than to Bacillus licheniformis (Bacillus licheniformis) [fold],bound to Bacillus anthracis fold better than to Bacillus cereus (Bacillus cereus) [fold],bound to Bacillus anthracis fold better than to Bacillus thuringiensis (Bacillus thuringiensis) [fold],"binding in the phage-capture assay (percentage recovery, eluted to input phage) [2]",binding of phage to spores in ELISA revealed with monoclonal antibody BD8 [3]
ETRVPHGA,high binding,24,24,12,2.4,2.2,–,–
DRTGATLT,–,–,–,–,–,–,high binding,–
EPRAPASL,–,–,–,–,–,–,high binding,–
VTRNTSAS,high binding,–,–,–,–,–,high binding,specific binding
DARGTTHM,high binding,75,25,50,3.7,2.1,high binding,–
EPRLSPHS,high binding,43,39,70,3.5,6.9,high binding,–
